Patent publication US20210106547A1, “Managing Cardiovascular Conditions Associated with Kidney Disease” (Emory University, priority 2019, published 2021)
“Also recorded” adds a separate entry of the source.

Key:
UT-B = target: T1, UT-B (Homo sapiens, UniProt Q13336); settings: cited from earlier work
T1 sequence (Q13336 1-389): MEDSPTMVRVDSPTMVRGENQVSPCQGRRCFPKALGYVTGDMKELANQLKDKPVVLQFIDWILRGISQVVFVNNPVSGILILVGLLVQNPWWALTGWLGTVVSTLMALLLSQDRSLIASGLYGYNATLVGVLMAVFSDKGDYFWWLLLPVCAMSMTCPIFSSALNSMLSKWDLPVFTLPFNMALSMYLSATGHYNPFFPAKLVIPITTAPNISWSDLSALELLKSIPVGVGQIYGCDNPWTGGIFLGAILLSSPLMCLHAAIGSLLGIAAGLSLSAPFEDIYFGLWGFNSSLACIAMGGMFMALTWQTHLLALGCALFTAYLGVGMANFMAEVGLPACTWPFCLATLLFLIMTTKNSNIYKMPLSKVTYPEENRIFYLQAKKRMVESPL

C57BL/6 wild type mice [1] = assay: Cardiac echocardiographic analysis of mice after 5/6 nephrectomy and DMTU treatment; assay type: in vivo, mouse; settings: for LVEDV: LV end-diastolic volume; for LVESD: LV end-systolic dimension; for LVESV: LV end-systolic volume; for FS: fractional shortening; for IVSd / IVSs: intraventricular septum; for PWd / PWs: posterior wall thickness; for LVMI: ratio of LVM to BW
Procedure: (§1) Experiment of C57BL/6 wild type mice. Mice underwent 5/6 nephrectomy surgery. Mice were fed 14% protein diet (0 weeks to 2 weeks), 23% protein diet (2 weeks to 6 weeks), and 40% protein diet (6 weeks to 8 weeks). Mice drank 1% NaCl water one week to six weeks after second surgery, and dimethylthiourea (DMTU; UT-A inhibitor) was administered by osmotic mini pump.
(§2) Since an increase in UT-A is associated with an increase in fibrosis proteins in vitro and in vivo, experiments were performed to determine whether inhibition of UT-A could prevent fibrosis in the heart of CKD mice. Mice were randomly divided into four cohorts: sham+vehicle, sham+DMTU, 5/6Nx+vehicle, and 5/6Nx+DMTU. Mini-pumps were used for DMTU administration (100 mg/kgBW/day). The phenotypic characteristics of mice were determined 8 weeks after completing the 5/6Nx (Table 1).
Both intraventricular septum (IVS) and posterior wall thicknesses (PW) were greatest in 5/6Nx+vehicle than all other three groups (Table 2).

C57BL/6 wild type mice [2] = assay: Masson's Trichrome staining of mouse heart tissues, fibrosis area; assay type: in vivo; settings: 5/6Nx + DMTU, 5/6Nx+vehicle 1.04±0.15
Procedure: Pictures were observed by ×200 magnification. Scale bar is 100 μm. Dark color indicated fibrosis in Masson's staining.
as §1, §2

C57BL/6 wild type mice [3] = assay: Phenotypic characteristics of sham and 5/6Nx mice 8 weeks after 5/6 nephrectomy, DMTU by osmotic mini pump; assay type: in vivo, mouse; settings: for 24 hr intake volume/BW / 24 hr urine osmolality / 24 hr urine volume/BW / BUN / Plasma osmolality / Urine urea / Volume in-out balance/BW: 8 weeks
Procedure: as §1, §2

Rats = settings: cited from earlier work
C57BL/6 wild type mice [4] = assay: Heart size and heart weight at sacrifice (cardiac hypertrophy); assay type: in vivo, mouse
Procedure: White bar is vehicle and black bar is DMTU treatment.
as §1, §2
Inhibition of UT-A suppressed CKD-induced increases in SBP in 5/6Nx mice (5/6Nx+DMTU: 119±3 mmHg vs 5/6Nx+vehicle: 130±2 mmHg, P<0.05) (FIG. 3A). […] DMTU suppressed the CKD-induced increase in heart weight (5/6Nx+DMTU: 3.74±0.12 mg/g vs 5/6Nx+vehicle: 4.50±0.09 mg/g, P<0.001) (FIG. 3D). Since the BW could be altered by either edema (in CKD) or dehydration (by DMTU), dry brain weight was also used to normalize heart weight.

C57BL/6 wild type mice [5] = assay: Quantitative mRNA expression in mouse hearts by real-time PCR; assay type: in vivo
Procedure: FIG. 4E show quantitative mRNA expression in mouse hearts performed by real-time PCR. Individual gene expression was calculated by ΔΔcq and standardized by housekeeping gene 18s.
Angiotensin converting enzyme (ACE) gene expression was calculated by ΔΔcq and standardized by housekeeping gene 18s.
as §1
Since an increase in UT-A is associated with an increase in fibrosis proteins in vitro and in vivo, experiments were performed to determine whether inhibition of UT-A could prevent fibrosis in the heart of CKD mice. […] The phenotypic characteristics of mice were determined 8 weeks after completing the 5/6Nx (Table 1).
In uremic cardiomyopathy, increased cardiac fibrosis and hypertrophy are associated with upregulation of the renin-angiotensin system (RAS). To identify whether the ability of UT-A to reduce cardiac fibrosis is related to the RAS, the mRNA expression of angiotensin converting enzyme (ACE) was measured in the heart of 4 groups of mice.

UT-A1 = target: T2, UT-A1 (Homo sapiens, UniProt Q15849); settings: cited from earlier work
T2 sequence (Q15849 1-920): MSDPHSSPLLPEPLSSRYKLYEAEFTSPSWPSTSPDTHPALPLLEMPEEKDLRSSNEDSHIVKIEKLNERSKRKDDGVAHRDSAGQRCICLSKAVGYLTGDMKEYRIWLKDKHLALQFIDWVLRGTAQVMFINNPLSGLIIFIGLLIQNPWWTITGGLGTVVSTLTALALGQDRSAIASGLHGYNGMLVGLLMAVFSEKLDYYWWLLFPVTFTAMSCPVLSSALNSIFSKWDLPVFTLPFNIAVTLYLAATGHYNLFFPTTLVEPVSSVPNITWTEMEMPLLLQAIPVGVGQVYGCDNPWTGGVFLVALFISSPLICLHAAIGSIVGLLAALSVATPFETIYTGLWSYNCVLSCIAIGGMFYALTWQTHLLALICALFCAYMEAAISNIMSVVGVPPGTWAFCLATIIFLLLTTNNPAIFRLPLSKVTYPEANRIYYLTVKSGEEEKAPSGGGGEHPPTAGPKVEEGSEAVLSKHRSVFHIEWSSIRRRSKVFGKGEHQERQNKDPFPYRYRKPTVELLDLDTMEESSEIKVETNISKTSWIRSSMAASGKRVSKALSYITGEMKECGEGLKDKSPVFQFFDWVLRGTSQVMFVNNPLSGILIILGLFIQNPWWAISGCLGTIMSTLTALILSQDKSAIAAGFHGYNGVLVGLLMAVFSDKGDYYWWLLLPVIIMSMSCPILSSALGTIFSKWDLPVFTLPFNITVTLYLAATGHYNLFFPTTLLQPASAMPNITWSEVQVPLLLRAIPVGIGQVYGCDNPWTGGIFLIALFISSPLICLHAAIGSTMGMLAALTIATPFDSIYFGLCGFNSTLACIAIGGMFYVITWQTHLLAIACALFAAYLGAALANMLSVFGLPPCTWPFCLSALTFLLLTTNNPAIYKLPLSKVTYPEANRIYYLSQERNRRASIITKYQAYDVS

C57BL/6 wild type mice [6] = assay: Immunohistochemistry staining of heart for collagen type 1 and α-SMA; assay type: in vivo, mouse; settings: 5/6Nx + DMTU compared with 5/6Nx + vehicle
Procedure: as §1, §2

C57BL/6 wild type mice [7] = assay: Blood pressure by tail cuff method at 8 weeks after the second surgery; assay type: in vivo, mouse
Procedure: Systolic blood pressure at 8 weeks after the second surgery.
as §1, §2

CNC(=S)NC [DMTU, N,N′-dimethylthiourea]
Inhibition of UT-B (UT-B): inhibits
CKD-induced increases of LVESD, LVEDV, LVESV and LVMI (C57BL/6 wild type mice [1]; 5/6Nx + DMTU): eliminated these increases
LVEDD (C57BL/6 wild type mice [1]; 5/6Nx + DMTU): 3.43 ± 0.06 mm
LVM (C57BL/6 wild type mice [1]; 5/6Nx + DMTU): 89 ± 3 mg
LVEDV (C57BL/6 wild type mice [1]; 5/6Nx + DMTU): 62.6 ± 0.3 µL
LVESD (C57BL/6 wild type mice [1]; 5/6Nx + DMTU): 2.77 ± 0.02 mm
LVESV (C57BL/6 wild type mice [1]; 5/6Nx + DMTU): 23.6 ± 0.3 µL
FS (C57BL/6 wild type mice [1]; 5/6Nx + DMTU): 30 ± 0.5 %
IVSd (C57BL/6 wild type mice [1]; 5/6Nx + DMTU): 0.49 ± 0.01 mm
IVSs (C57BL/6 wild type mice [1]; 5/6Nx + DMTU): 1.08 ± 0.00 mm
PWd (C57BL/6 wild type mice [1]; 5/6Nx + DMTU): 0.55 ± 0.01 mm
PWs (C57BL/6 wild type mice [1]; 5/6Nx + DMTU): 0.52 ± 0.01 mm
LVMI (C57BL/6 wild type mice [1]; 5/6Nx + DMTU): 3.44 ± 0.13 mg/g
Percentage of fractional shortening (FS), effect (C57BL/6 wild type mice [1]; CKD heart): restored FS to the normal range
Pericardial effusion (C57BL/6 wild type mice [1]; mice of the cohorts other than 5/6Nx+vehicle (incl. sham+DMTU, 5/6Nx+DMTU)): none of the mice
LVEDD (C57BL/6 wild type mice [1]; sham + DMTU): 3.80 ± 0.18 mm
LVM (C57BL/6 wild type mice [1]; sham + DMTU): 97 ± 7 mg
LVEDV (C57BL/6 wild type mice [1]; sham + DMTU): 57.3 ± 1.8 µL
LVESD (C57BL/6 wild type mice [1]; sham + DMTU): 2.45 ± 0.14 mm
LVESV (C57BL/6 wild type mice [1]; sham + DMTU): 21.8 ± 1.1 µL
FS (C57BL/6 wild type mice [1]; sham + DMTU): 33 ± 0.5%
IVSd (C57BL/6 wild type mice [1]; sham + DMTU): 0.44 ± 0.00 mm
IVSs (C57BL/6 wild type mice [1]; sham + DMTU): 1.05 ± 0.00 mm
PWd (C57BL/6 wild type mice [1]; sham + DMTU): 0.53 ± 0.00 mm
PWs (C57BL/6 wild type mice [1]; sham + DMTU): 0.52 ± 0.03 mm
LVMI (C57BL/6 wild type mice [1]; sham + DMTU): 3.73 ± 0.15 mg/g
Percentage of fibrosis area in heart (C57BL/6 wild type mice [2]): 0.57±0.07%
Volume in-out balance relative to 5/6Nx+vehicle (C57BL/6 wild type mice [3]; 5/6Nx + DMTU): the balance was less
24 hr intake volume/BW (C57BL/6 wild type mice [3]; 5/6Nx + DMTU): 0.265 ± 0.028 mL/g
24 hr urine osmolality (C57BL/6 wild type mice [3]; 5/6Nx + DMTU): 1206 ± 116 mOsmol/kg H2O
24 hr urine volume/BW (C57BL/6 wild type mice [3]; 5/6Nx + DMTU): 0.170 ± 0.013 mL/g
BUN (C57BL/6 wild type mice [3]; 5/6Nx + DMTU): 63.7 ± 4.6 mg/dL
Plasma osmolality (C57BL/6 wild type mice [3]; 5/6Nx + DMTU): 329 ± 3 mOsmol/kg H2O
Urine urea (C57BL/6 wild type mice [3]; 5/6Nx + DMTU): 926 ± 95 mmol/L
Volume in-out balance/BW (C57BL/6 wild type mice [3]; 5/6Nx + DMTU): 0.114 ± 0.014 mL/g
Increase of urine volume and decrease of urine osmolality (C57BL/6 wild type mice [3]; CKD mice): absent
BUN values with DMTU treatment vs. vehicle treatment (C57BL/6 wild type mice [3]; either sham or CKD mice): no significant difference
24 hr intake volume/BW (C57BL/6 wild type mice [3]; sham + DMTU): 0.129 ± 0.006 mL/g
24 hr urine osmolality (C57BL/6 wild type mice [3]; sham + DMTU): 2378 ± 133 mOsmol/kg H2O
24 hr urine volume/BW (C57BL/6 wild type mice [3]; sham + DMTU): 0.058 ± 0.010 mL/g
BUN (C57BL/6 wild type mice [3]; sham + DMTU): 31.3 ± 2.8 mg/dL
Plasma osmolality (C57BL/6 wild type mice [3]; sham + DMTU): 322 ± 1 mOsmol/kg H2O
Urine urea (C57BL/6 wild type mice [3]; sham + DMTU): 1555 ± 128 mmol/L
Volume in-out balance/BW (C57BL/6 wild type mice [3]; sham + DMTU): 0.081 ± 0.010 mL/g
Effect on urine osmolality (C57BL/6 wild type mice [3]; sham mice): decreased urine osmolality
Effect on urine volume (C57BL/6 wild type mice [3]; sham mice): increased urine volume
Diuresis compared with furosemide (Rats): greater diuresis
Side effects like hyponatremia or hypokalemia (Rats): did not show side effects
Ratio of heart weight to dry brain weight (C57BL/6 wild type mice [4]; 5/6Nx + DMTU, vs 5/6Nx+vehicle 1.34±0.09, P<0.01): 1.04 ± 0.04 mg/mg
Ratio of heart weight/body weight (BW) (C57BL/6 wild type mice [4]; 5/6Nx + DMTU, vs 5/6Nx+vehicle 4.50±0.09, P<0.001): 3.74 ± 0.12 mg/g
CKD-induced increase in heart size (C57BL/6 wild type mice [4]; 5/6Nx mice, at sacrifice): suppressed the CKD-induced increase in heart size
mRNA expression of fibrosis related genes (collagen 1A1, collagen 4A1, fibronectin and α-SMA) in heart (C57BL/6 wild type mice [5]; 5/6Nx + DMTU compared with 5/6Nx + vehicle): less than 5/6Nx+vehicle mice
mRNA expression of angiotensin converting enzyme (ACE) in heart (C57BL/6 wild type mice [5]; sham and 5/6Nx groups, DMTU vs vehicle): significantly abolished ACE expression; also recorded: suppressed an increase in ACE mRNA expression
Inhibition of UT-A1 (UT-A1): inhibits
Collagen type I and α-smooth muscle actin (SMA) proteins in heart (C57BL/6 wild type mice [6]): less
SBP (systolic blood pressure) (C57BL/6 wild type mice [7]; 5/6Nx + DMTU, 8 weeks, vs 5/6Nx+vehicle 130±2, P<0.05): 119±3 mmHg
Effect on DBP (diastolic blood pressure) (C57BL/6 wild type mice [7]; sham or 5/6Nx mice): did not affect DBP
